Test results: the NIST ThermoML archive (doi:10.1021/je060271a)
Where “and” joins values, the source holds several entries; their conditions need not be identical. Equal values may be shown once.

Conditions: Liquid, Vibrating tube method

CCCCCC(=O)OCC(COC(=O)CCCCC)(COC(=O)CCCCC)COC(=O)CCCCC [pentaerythritol tetrahexanoate]
Conditions | mass density
343.16 K, 33002 kPa | 980 kg/m3
343.16 K, 33028 kPa | 980.1 kg/m3
343.16 K, 33054 kPa | 980.2 kg/m3
343.16 K, 33085 kPa | 980.1 kg/m3
343.16 K, 33111 kPa | 980.2 kg/m3
343.16 K, 33138 kPa | 980.1 kg/m3
343.16 K, 33170 kPa | 980.2 kg/m3
343.16 K, 33198 kPa | 980.2 kg/m3
343.16 K, 33224 kPa | 980.2 kg/m3
343.16 K, 33250 kPa | 980.3 kg/m3
343.16 K, 33277 kPa | 980.2 kg/m3
343.16 K, 33310 kPa | 980 kg/m3
343.16 K, 33337 kPa | 980.3 kg/m3
343.16 K, 33364 kPa | 980.3 kg/m3
343.16 K, 33397 kPa | 980.3 kg/m3
343.16 K, 33424 kPa | 980.3 kg/m3
343.16 K, 33458 kPa | 980.4 kg/m3
343.16 K, 33486 kPa | 980.4 kg/m3
343.16 K, 33515 kPa | 980.2 kg/m3
343.16 K, 33551 kPa | 980.4 kg/m3
343.16 K, 33582 kPa | 980.5 kg/m3
343.16 K, 33613 kPa | 980.4 kg/m3
343.16 K, 33643 kPa | 980.7 kg/m3
343.16 K, 33678 kPa | 980.5 kg/m3
343.16 K, 33700 kPa | 980.5 kg/m3
343.16 K, 33718 kPa | 980.5 kg/m3
343.16 K, 33738 kPa | 980.5 kg/m3
343.16 K, 33761 kPa | 980.6 kg/m3
343.16 K, 33781 kPa | 980.6 kg/m3
343.16 K, 33806 kPa | 980.6 kg/m3
343.16 K, 33826 kPa | 980.6 kg/m3
343.16 K, 33846 kPa | 980.6 kg/m3
343.16 K, 33868 kPa | 980.6 kg/m3
343.16 K, 33883 kPa | 980.7 kg/m3
343.16 K, 33898 kPa | 980.7 kg/m3
343.16 K, 33914 kPa | 980.8 kg/m3
343.16 K, 33932 kPa | 980.6 kg/m3
343.16 K, 33948 kPa | 980.7 kg/m3
343.16 K, 33966 kPa | 980.7 kg/m3
343.16 K, 33982 kPa | 980.5 kg/m3
343.16 K, 33995 kPa | 980.7 kg/m3
343.16 K, 34005 kPa | 980.7 kg/m3
343.16 K, 34016 kPa | 980.8 kg/m3
343.16 K, 34026 kPa | 980.7 kg/m3
343.16 K, 34034 kPa | 980.8 kg/m3
343.16 K, 34035 kPa | 980.7 kg/m3
343.16 K, 34036 kPa | 980.8 kg/m3
343.16 K, 34037 kPa | 980.9 kg/m3 and 980.6 kg/m3
343.16 K, 34047 kPa | 980.7 kg/m3
343.16 K, 34048 kPa | 980.7 kg/m3
343.16 K, 34058 kPa | 980.8 kg/m3
343.16 K, 34091 kPa | 980.7 kg/m3
343.16 K, 34101 kPa | 980.8 kg/m3
343.16 K, 34114 kPa | 980.8 kg/m3
343.16 K, 34125 kPa | 980.7 kg/m3
343.16 K, 34137 kPa | 980.8 kg/m3
343.16 K, 34151 kPa | 980.7 kg/m3
343.16 K, 34163 kPa | 980.8 kg/m3
343.16 K, 34177 kPa | 980.7 kg/m3
343.16 K, 34189 kPa | 980.8 kg/m3
343.16 K, 34190 kPa | 980.9 kg/m3
343.16 K, 34198 kPa | 980.8 kg/m3
343.16 K, 34203 kPa | 980.8 kg/m3
343.16 K, 34211 kPa | 980.7 kg/m3
343.16 K, 34217 kPa | 980.8 kg/m3
343.16 K, 34223 kPa | 980.8 kg/m3
343.16 K, 34231 kPa | 980.7 kg/m3
343.16 K, 34237 kPa | 980.9 kg/m3
343.16 K, 34243 kPa | 980.7 kg/m3
343.16 K, 34248 kPa | 980.8 kg/m3
343.16 K, 34251 kPa | 980.9 kg/m3
343.16 K, 34253 kPa | 980.9 kg/m3
343.16 K, 34254 kPa | 980.8 kg/m3 and 980.9 kg/m3
343.16 K, 34255 kPa | 980.8 kg/m3 and 980.9 kg/m3
343.16 K, 34256 kPa | 980.8 kg/m3 and 980.9 kg/m3 and 980.7 kg/m3
343.16 K, 34257 kPa | 980.9 kg/m3
343.16 K, 34258 kPa | 980.8 kg/m3 and 980.7 kg/m3
343.16 K, 34259 kPa | 981 kg/m3
343.16 K, 34262 kPa | 980.9 kg/m3
343.16 K, 34263 kPa | 980.8 kg/m3 and 980.9 kg/m3
343.16 K, 34264 kPa | 980.9 kg/m3
343.16 K, 34265 kPa | 980.9 kg/m3 and 980.8 kg/m3
343.16 K, 34266 kPa | 980.8 kg/m3 and 980.9 kg/m3
343.16 K, 34267 kPa | 980.8 kg/m3 and 981 kg/m3 and 980.9 kg/m3
343.16 K, 34268 kPa | 980.8 kg/m3 and 980.9 kg/m3
343.16 K, 34269 kPa | 980.8 kg/m3 and 980.9 kg/m3
343.16 K, 34270 kPa | 980.9 kg/m3 and 980.8 kg/m3
343.16 K, 34271 kPa | 980.8 kg/m3
343.16 K, 34272 kPa | 981 kg/m3
343.16 K, 34273 kPa | 980.9 kg/m3
343.16 K, 34274 kPa | 980.9 kg/m3
343.16 K, 34275 kPa | 980.8 kg/m3
343.16 K, 34276 kPa | 980.9 kg/m3
343.16 K, 34277 kPa | 980.9 kg/m3
343.16 K, 34278 kPa | 980.9 kg/m3
343.16 K, 34279 kPa | 980.8 kg/m3
343.16 K, 34283 kPa | 980.9 kg/m3
343.16 K, 34284 kPa | 980.9 kg/m3 and 980.8 kg/m3 and 981 kg/m3
343.16 K, 34285 kPa | 980.9 kg/m3
343.16 K, 34286 kPa | 980.8 kg/m3
343.16 K, 34287 kPa | 980.9 kg/m3 and 981 kg/m3
343.16 K, 34288 kPa | 980.9 kg/m3
343.16 K, 34289 kPa | 980.9 kg/m3
343.16 K, 34290 kPa | 980.8 kg/m3 and 980.9 kg/m3
343.16 K, 34291 kPa | 980.9 kg/m3
343.16 K, 34292 kPa | 980.9 kg/m3
343.16 K, 34293 kPa | 980.9 kg/m3
343.16 K, 34294 kPa | 980.9 kg/m3
343.16 K, 34295 kPa | 980.8 kg/m3
343.16 K, 34296 kPa | 980.9 kg/m3
343.16 K, 34297 kPa | 980.9 kg/m3
343.16 K, 34298 kPa | 980.9 kg/m3 and 981 kg/m3
343.16 K, 34300 kPa | 980.9 kg/m3
343.16 K, 34301 kPa | 980.8 kg/m3
343.16 K, 34303 kPa | 980.9 kg/m3
343.16 K, 34305 kPa | 980.9 kg/m3
343.16 K, 34307 kPa | 980.9 kg/m3
343.16 K, 34310 kPa | 981 kg/m3
343.16 K, 34312 kPa | 980.8 kg/m3
343.16 K, 34315 kPa | 980.9 kg/m3
343.16 K, 34319 kPa | 980.9 kg/m3
343.16 K, 34322 kPa | 980.9 kg/m3
343.16 K, 34326 kPa | 980.9 kg/m3
343.16 K, 34332 kPa | 980.8 kg/m3
343.16 K, 34336 kPa | 980.8 kg/m3
343.16 K, 34342 kPa | 980.9 kg/m3
343.16 K, 34350 kPa | 980.9 kg/m3
343.16 K, 34356 kPa | 980.9 kg/m3
343.16 K, 34361 kPa | 980.9 kg/m3
343.16 K, 34363 kPa | 980.9 kg/m3
343.16 K, 34369 kPa | 981 kg/m3
343.17 K, 21206 kPa | 972.4 kg/m3
343.17 K, 30224 kPa | 978.4 kg/m3
343.17 K, 30254 kPa | 978.3 kg/m3
343.17 K, 30283 kPa | 978.4 kg/m3
343.17 K, 30312 kPa | 978.5 kg/m3
343.17 K, 30333 kPa | 978.4 kg/m3
343.17 K, 30358 kPa | 978.5 kg/m3
343.17 K, 30380 kPa | 978.5 kg/m3
343.17 K, 30402 kPa | 978.4 kg/m3
343.17 K, 30428 kPa | 978.5 kg/m3
343.17 K, 30449 kPa | 978.5 kg/m3
343.17 K, 30471 kPa | 978.6 kg/m3
343.17 K, 30497 kPa | 978.5 kg/m3
343.17 K, 31456 kPa | 979.2 kg/m3
